Results reported in patent US20170183318A1, “AMIDE COMPOUNDS, METHODS FOR PREPARATION, AND USE THEREOF AS AGENTS FOR THE TREATMENT AND PREVENTION OF DISEASES CAUSED BY RNA- AND/OR DNA-CONTAINING VIRUSES, AND CONCOMITANT DISEASES” (OBSCHESTVO S OGRANICHENNOI OTVETSTVENNOSTIYU …, priority 2014, published 2017).
Like-named read-outs stand apart in the source and are kept apart here. Starred links: 1 amine or outer side, 2 acyl side, 3 side chain; linkers in the order of their positions; H or OH if unused. Residues, ends and D or L forms follow the SMILES beside them. Glutaryl = O=C(CCCC(=O)[*:2])[*:1]

Assays:
[1] = test system: human virus hRSV; test: Antiviral activity against mouse-adapted RS virus (body weight; viral titer in lungs titrated in Hep-2 cells); assay type: in vivo, mice; conditions: for hRSV in the lungs of mice, Day 5, lg / hRSV in the lungs of mice, Day 7, lg: 10% lung suspension titrated in Hep-2 cells (TCID); for hRSV in the lungs of mice, Day 5, lg / Body weight of the mice on day 5 after infection with hRSV (M ± SD) / hRSV in the lungs of mice, Day 7, lg / Body weight of the mice on day 7 after infection with hRSV (M ± SD): compounds 30 mg/kg, Ribavirin 40 mg/kg; for Body weight of the mice on day 5 after infection with hRSV (M ± SD) / Body weight of the mice on day 7 after infection with hRSV (M ± SD): orally once daily for 5 days, n = 6; for log reduction at 30 mg/kg: human respiratory syncytial virus, HEp-2, po
Protocol: Antiviral effectiveness of the chemical compounds against RSV in an experimental murine model in vivo was determined for human virus hRSV that was previously adapted to the growth in mouse lungs. The animals were infected with the virus at a dose of 0.5 log TCID50 intranasally under brief ether anesthesia in a volume of 0.05 ml/mouse. The studied compounds were administered orally once daily for 5 days according to the treatment regimen at a dose of 30 mg/kg. The first administration was made 24 hours after infection. Normal saline solution was administered to mice as placebo. Intact animals served as a negative control and were hold in a separate room under the same conditions as the experimental animals. Each experimental group comprised 12 animals.
The antiviral activity of the studied compounds was determined by the efficiency in the prevention of weight loss and by suppression of the reproduction of hRSV in the mouse lungs by measuring a viral titer in the experimental groups relative to the control on days 5 and 7 after infection.
In addition, the therapeutic action of the compounds of general formula I was determined by their ability to suppress the reproduction of hRSV in the mouse lungs on days 5 and 7 after infection. The viral titer was determined by the titration of a 10% lung suspension in Hep-2 cell culture. The result was registered 2 days after the incubation at 37° C. by TCID.

[2] = test system: herpes simplex virus belonging to antigenic type 2; test: Murine model of experimental herpetic meningoencephalitis (mortality); assay type: in vivo, white outbred mice; conditions: Mus musculus, po, 336 h
Protocol: In the study, herpes simplex virus belonging to antigenic type 2 was used. White outbred mice weighing 7-8 g were infected i/c (intracerebrally) in a volume of 0.05 ml/mouse comprising a dose of 10LD50. The infectious dose of the virus that caused 100% mortality in mice was 10LD50. Each experimental group comprised 20 mice. Intact animals served as control and were hold in a separate room under the same conditions as the experimental animals. The antiviral activity of the compounds of general formula I was studied by oral administration of the compounds to infected mice once daily at a dose of 30 mg/kg/mouse 24, 48, 72, 96, and 120 hours after infection of the animals with the virus. The mice of the control group were administered placebo (0.2 mL of physiological solution) under the same conditions. The animals were monitored for 14 days after infection by registration the mouse death in the groups.
Each animal was subjected to once-daily observation. The observation included the assessment of general behavior and body condition of animals. The animals were handled according to the International Standards.
The activity of the compounds was evaluated by comparing mortality rates in the groups of animals administered a preparation and placebo.

[3] = test system: Coxsackie A2 virus (strain HCXV A2); test: Antiviral activity against Coxsackie virus in vivo (mortality and life expectancy of infected mice); conditions: for inhibition in vivo at 30 mg/kg / mortality at 30 mg/kg: Mus musculus, po; for inhibition in vivo at 30 mg/kg: 168 h, vs virus control, read-out: Protective index (%); for inhibition in vivo at 30 mg/kg / Average life expectancy (days), Compared with control / Average life expectancy (days), Relative: 30 mg/kg orally once daily for 7 days; for mortality at 30 mg/kg: 360 h, read-out: Total mortality, %; for Average life expectancy (days), Compared with control: difference vs virus control; for Average life expectancy (days), Relative: mice infected with 10LD50 HCXV A2
Protocol: In the study a trypsin-dependent strain HCXV A2 was used, previously adapted and causing death in mice from Coxsackie virus infection.
The experiment was carried out in white mice weighing 6 to 7 g. The animals were infected intramuscularly with a dose of 0.1 mL/mouse. The used infectious dose causing mortality in mice was 10LD50.
The ability of compounds to provide a therapeutic effect was determined by the mortality rate of HCXV A2 virus-infected mice in the experimental group relative to the group of untreated animals.
The studied compounds and placebo were administered orally according to the treatment regimen. Normal saline solution was administered to mice as placebo. Intact animals served as a negative control and were hold in a separate room under the same conditions as the experimental animals.
For the experiment, groups were formed with 14-15 animals each. Compounds were administered at a dose of 30 mg/kg of body weight. The studied compounds were administered orally once daily for 7 days (first administration was made 24 hours after infection). The animals were monitored for 15 days during which the animals were weighed and the mortality rate was registered every day.

[4] = Rat model of nasopharyngitis induced by formalin (nasal mucosa changes, cell elements in nasal lavage); assay type: in vivo; conditions: Wistar rats, 18 mg/kg for 3 days; for Mucous membrane of nasal passages: Without changes (number of animals): number of animals out of n = 10, control 0 of 20; for Mucous membrane of nasal passages: Discharge mucus from the nasal passages (number of animals): number of animals out of n = 10, control 20 of 20
Protocol: Nasopharyngitis was induced by intranasal administration of formalin to each nasal passage of rats.
The administration of formalin to the nasal passages of rats leads to the dissemination of inflammation to adjacent tissues, resulting in a clinical pattern similar to the symptoms of nasopharyngitis in a human.
After an acclimatization period, the following groups were formed: • intact animals administered intragastrically a physiological solution in an amount of 0.2 ml, without induction of nasopharyngitis; • a control group consisted of animals administered intragastrically a physiological solution in an amount of 0.2 ml for 3 days after induction of nasopharyngitis; and • animals administered the studied compounds at a dose of 18 mg/kg for 3 days after induction of nasopharyngitis.
Clinical observation of each animal was performed every day at least twice daily.
The caused pathology was characterized by hyperplasia, increased number of caliciform cells, pronounced infiltration of mononuclear cells and leucocytes, and mucus hyperproduction by submucosal glands.
After euthanasia, the inflammation pattern in the nasal passages and throat was studied in each group of animals. The nasal passages were washed with 5 mL of physiological solution and the score of cell elements were counted in 1 μL.

[5] = test system: human respiratory syncytial virus (strain A2); test: Antiviral activity against RS virus in a murine model of suppressed immune system (lung edema); assay type: in vivo; conditions: Balb/c mice, cyclophosphan-suppressed, RS-virus pneumonia; 30 mg/kg once daily for 5 days; M ± SD, n = 5; scores from possible 4
Protocol: Antiviral activity of the chemical compounds against human respiratory syncytial virus (strain A2, an infectious titer of 5×10^6 TCID50/mL) was assessed in a Balb/c murine model of viral pneumonia. The virus was inoculated to animals intranasally in a volume of 50 μL under brief ether anesthesia. The immune response in animals to RS virus was suppressed by intraperitoneal administration of cyclophosphan at a dose of 100 mg/kg 5 days before infection. The studied compounds were administered according to the treatment regimen once daily at a dose of 30 mg/kg for 5 days, starting 24 hours after infection. The activity of the compounds was determined by a reduction in edema of the lung infected with respiratory syncytial virus, compared to the control, on day 5 after infection.

[6] = 120 h, read-out: Suppression of the reproduction of hRSV in the lungs of mice, Day 5, Δlg
[7] = 168 h, read-out: Suppression of the reproduction of hRSV in the lungs of mice, Day 7, Δlg

**Q.** For `COC(=O)C(CO)NC(=O)C(Cc1cnc[nH]1)NC(=O)CCCC(=O)O` (stereo not drawn) [Compound 149] (Glutaryl-His-Ser-OMe; configuration not given here), which “hRSV in the lungs of mice, Day 5, lg” value [1] is on record?
**A.** 2.6 ± 0.1 lg

**Q.** And the “Body weight of the mice on day 5 after infection with hRSV (M ± SD)” value [1]?
**A.** 15.44 ± 0.31

**Q.** And the “hRSV in the lungs of mice, Day 7, lg” value [1]?
**A.** 2.3 ± 0.4 lg

**Q.** What about the “Body weight of the mice on day 7 after infection with hRSV (M ± SD)” value [1] of the same molecule?
**A.** 17.32 ± 0.59

**Q.** And the log reduction at 30 mg/kg [1, 6]?
**A.** 1.9 ± 0.1

**Q.** And the log reduction at 30 mg/kg [1, 7]?
**A.** 1.4 ± 0.4

**Q.** And the mortality at 30 mg/kg [2]?
**A.** 25%

**Q.** And the inhibition in vivo at 30 mg/kg [3]?
**A.** 27.2%

**Q.** And the mortality at 30 mg/kg [3]?
**A.** 53.3%

**Q.** And the “Average life expectancy (days), Compared with control” value [3]?
**A.** +8.9 days

**Q.** And the “Average life expectancy (days), Relative” value [3]?
**A.** 19.6 days

**Q.** What about the “Mucous membrane of nasal passages: Without changes (number of animals)” value [4] of the same molecule?
**A.** 5

**Q.** And the “Mucous membrane of nasal passages: Discharge mucus from the nasal passages (number of animals)” value [4]?
**A.** 5

**Q.** Which results are given for `O=C(O)CCCC(=O)NCCc1cocn1` [Compound 124]?
**A.** hRSV in the lungs of mice, Day 5, lg [1]: 2.46 ± 0.22 lg; Body weight of the mice on day 5 after infection with hRSV (M ± SD) [1]: 16.43 ± 0.26; hRSV in the lungs of mice, Day 7, lg [1]: 0.83 ± 0.37 lg; Body weight of the mice on day 7 after infection with hRSV (M ± SD) [1]: 16.37 ± 0.43; log reduction at 30 mg/kg [1, 6]: 2.14 ± 0.22; log reduction at 30 mg/kg [1, 7]: 2.97 ± 0.37; mortality at 30 mg/kg [2]: 40%; Mucous membrane of nasal passages: Without changes (number of animals) [4]: 7; Mucous membrane of nasal passages: Discharge mucus from the nasal passages (number of animals) [4]: 3

**Q.** For `O=C(O)CCCC(=O)NCCC1CCCNC1` (stereo not drawn) [Compound 5], which “hRSV in the lungs of mice, Day 5, lg” value [1] is on record?
**A.** 2.17 ± 0.37 lg

**Q.** And the “Body weight of the mice on day 5 after infection with hRSV (M ± SD)” value [1]?
**A.** 16.02 ± 0.16

**Q.** And the “hRSV in the lungs of mice, Day 7, lg” value [1]?
**A.** 0.88 ± 0.31 lg

**Q.** And the “Body weight of the mice on day 7 after infection with hRSV (M ± SD)” value [1]?
**A.** 17.78 ± 0.26

**Q.** What about the log reduction at 30 mg/kg [1, 6] of the same molecule?
**A.** 2.43 ± 0.37

**Q.** What about the log reduction at 30 mg/kg [1, 7] of the same molecule?
**A.** 2.93 ± 0.31

**Q.** And the “Degree of lung edema on day 5 after infection, score” value [5]?
**A.** 1.10 ± 0.19 score

**Q.** And the mortality at 30 mg/kg [2]?
**A.** 35%

**Q.** What about the “Mucous membrane of nasal passages: Without changes (number of animals)” value [4] of the same molecule?
**A.** 5

**Q.** And the “Mucous membrane of nasal passages: Discharge mucus from the nasal passages (number of animals)” value [4]?
**A.** 5

**Q.** With `NCCCC(=O)NCCCc1cccs1` [Compound 100] as the molecule, how does the mortality at 30 mg/kg [2] read?
**A.** 30%

**Q.** And the “Mucous membrane of nasal passages: Without changes (number of animals)” value [4]?
**A.** 3

**Q.** And the “Mucous membrane of nasal passages: Discharge mucus from the nasal passages (number of animals)” value [4]?
**A.** 7

**Q.** Which results are given for `CC(C)(CCC(=O)NCCc1cnc[nH]1)C(=O)O` [Compound 44]?
**A.** mortality at 30 mg/kg [2]: 40%; inhibition in vivo at 30 mg/kg [3]: 55%; mortality at 30 mg/kg [3]: 28.6%; Average life expectancy (days), Compared with control [3]: +20.1 days; Average life expectancy (days), Relative [3]: 32.3 days; Mucous membrane of nasal passages: Without changes (number of animals) [4]: 4; Mucous membrane of nasal passages: Discharge mucus from the nasal passages (number of animals) [4]: 6

**Q.** Which mortality at 30 mg/kg [2] does the source give for `O=C(O)CCCC(=O)NCCc1cnccn1` [Compound 131] here?
**A.** 45%

**Q.** And the “Mucous membrane of nasal passages: Without changes (number of animals)” value [4]?
**A.** 5

**Q.** What about the “Mucous membrane of nasal passages: Discharge mucus from the nasal passages (number of animals)” value [4] of the same molecule?
**A.** 5
